2 compounds from patent US9695155B2, “Herbicidal substituted pyrimidinyloxy benzene compounds” (E. I. DU PONT DE NEMOURS AND COMPANY, priority 2013, dated 2017) can be followed below.

The subject of assay [1] is giant foxtail. Nature of the assay: Test A preemergence. Type of assay: in vivo, Setaria faberii. Particulars: 0 to 100 scale, 0 no effect, 100 complete control, approx. 10 days. In a few lines:
(§1)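 Pre- and postemergence greenhouse screen. Soil: loam + sand. Spray carrier: solvent mixture, non-phytotoxic, with surfactant. Post timing at 1–2 leaves, height 2–10 cm. Readout: visual injury on a 0–100 scale roughly 10 days after application, untreated plants as reference.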

The test system of the next assay is corn. Put plainly: Test A postemergence. It counts as in vivo, Zea mays. Particulars: 0 to 100 scale, 0 no effect, 100 complete control. The gist of the method: as §1
Assay [2] has as its system barnyardgrass. Put plainly: Test A postemergence. Type of assay: in vivo, Echinochloa crus-galli. Particulars: 0 to 100 scale, 0 no effect, 100 complete control. The gist of the method:
as §1

The test system of assay [3] is pigweed. Nature of the assay: Test A preemergence. Particulars: 0 to 100 scale, 0 no effect, 100 complete control, approx. 10 days. Type of assay: in vivo, Amaranthus retroflexus. In a few lines:
as §1

A further assay concerns wheat. Put plainly: Test A postemergence. It counts as in vivo, Triticum aestivum. In a few lines:
as §1

The subject of assay [4] is ragweed. Put plainly: Test A preemergence. It counts as in vivo, Ambrosia elatior. To be noted: 0 to 100 scale, 0 no effect, 100 complete control, approx. 10 days. The source says: (§2) Seeds of plant species selected from barnyardgrass (Echinochloa crus-galli), kochia (Kochia scoparia), ragweed (common ragweed, Ambrosia elatior), Italian ryegrass (Lolium multiflorum), large (Lg) crabgrass (Digitaria sanguinalis), giant foxtail (Setaria faberii), morningglory (Ipomoea spp.), pigweed (Amaranthus retroflexus), velvetleaf (Abutilon theophrasti), wheat (Triticum aestivum), and corn (Zea mays) were planted into a blend of loam soil and sand and treated preemergence with a directed soil spray using test chemicals formulated in a non-phytotoxic solvent mixture which included a surfactant.
(§3) At the same time, plants selected from these crop and weed species and also blackgrass (Alopecurus myosuroides), and galium (catchweed bedstraw, Galium aparine) were planted in pots containing the same blend of loam soil and sand and treated with postemergence applications of test chemicals formulated in the same manner. Plants ranged in height from 2 to 10 cm and were in the one- to two-leaf stage for the postemergence treatment. Treated plants and untreated controls were maintained in a greenhouse for approximately 10 days, after which time all treated plants were compared to untreated controls and visually evaluated for injury. Plant response ratings, summarized in Table A, are based on a 0 to 100 scale where 0 is no effect and 100 is complete control. A dash (-) response means no test result.

In assay [5] the test system is giant foxtail. Put plainly: Test A postemergence. Type of assay: in vivo, Setaria faberii. In a few lines:
as §1

The test system of another assay is galium. Nature of the assay: Test A postemergence. It counts as in vivo, Galium aparine.
Excerpt: as §2, §3

Assay [6] relates to pigweed. Put plainly: Test A postemergence. Type of assay: in vivo, Amaranthus retroflexus. The gist of the method:
as §1

Assay [7] deals with Italian ryegrass. Nature of the assay: Test A preemergence. To be noted: 0 to 100 scale, 0 no effect, 100 complete control, approx. 10 days. It counts as in vivo, Lolium multiflorum.
Excerpt: as §2, §3

Assay [8] relates to kochia. Put plainly: Test A preemergence. Type of assay: in vivo, Kochia scoparia. To be noted: 0 to 100 scale, 0 no effect, 100 complete control, approx. 10 days.
Excerpt: as §2, §3

Assay [9] has as its system barnyardgrass. Nature of the assay: Test A preemergence. Type of assay: in vivo, Echinochloa crus-galli. To be noted: 0 to 100 scale, 0 no effect, 100 complete control, approx. 10 days. In a few lines:
as §1

Assay [10] deals with Italian ryegrass. Put plainly: Test A postemergence. It counts as in vivo, Lolium multiflorum.
Excerpt: as §2, §3

Assay [11] relates to ragweed. Nature of the assay: Test A postemergence. It counts as in vivo, Ambrosia elatior.
Excerpt: as §2, §3

A further assay relates to blackgrass. Put plainly: Test A postemergence. It counts as in vivo, Alopecurus myosuroides. Particulars: 0 to 100 scale, 0 no effect, 100 complete control.
Excerpt: as §2, §3

The test system of assay [12] is kochia. Put plainly: Test A postemergence. Type of assay: in vivo, Kochia scoparia.
Excerpt: as §2, §3

[13] abbreviates: 500 g ai/ha, 0 to 100 scale where 0 is no effect and 100 is complete control.
Setting [14] is: 1000 g ai/ha, 0 to 100 scale, 0 no effect, 100 complete control.

On to `Oc1cccc(Oc2ncc(Cl)cn2)c1-n1cc(Br)cn1` [Compound 68], for which the “Foxtail, Giant plant response rating” value in the assay on giant foxtail [1] (500 g ai/ha) was found to be 0. Besides, the “Plant response rating, Corn” value with corn (500 g ai/ha) was 0. In the assay on barnyardgrass [2] (500 g ai/ha), the “Plant response rating, Barnyardgrass” value is given as 0. Further, the “Pigweed plant response rating” value with pigweed [3] (500 g ai/ha) is given as 30. For the same compound, the “Plant response rating, Wheat” value in the assay on wheat (setting [13]) is 0. For the same compound, the “Ragweed plant response rating” value in the assay with ragweed [4] (500 g ai/ha) is 0. Also, the “Plant response rating, Foxtail, Giant” value in the assay on giant foxtail [5] (setting [13]) was 0. For the same compound, the “Plant response rating, Galium” value in the assay with galium (setting [13]) was 0. For the same compound, in the assay with pigweed [6] (setting [13]), the “Plant response rating, Pigweed” value was determined as 0. In the assay with Italian ryegrass [7] (500 g ai/ha), the “Ryegrass, Italian plant response rating” value was 0. The “Kochia plant response rating” value in the assay with kochia [8] (500 g ai/ha) worked out at 0. Moreover, in the assay with barnyardgrass [9] (500 g ai/ha), the “Barnyardgrass plant response rating” value is 0. Besides, the “Plant response rating, Ryegrass, Italian” value in the assay with Italian ryegrass [10] (setting [13]) stood at 0. The “Plant response rating, Ragweed” value with ragweed [11] (setting [13]) is 0. For the same compound, the “Plant response rating, Blackgrass” value in the assay on blackgrass (500 g ai/ha) was found to be 0. In addition, in the assay on kochia [12] (setting [13]), the “Plant response rating, Kochia” value stood at 0.

In the case of `CN(C)C(=O)c1cccc(Oc2ncc(Cl)cn2)c1-n1cc(C(F)(F)F)cn1` [Compound 255], the “Foxtail, Giant plant response rating” value in the assay with giant foxtail [1] (1000 g ai/ha) was determined as 10. Also, the “Plant response rating, Corn” value in the assay on corn (1000 g ai/ha) is listed as 0. For the same compound, the “Plant response rating, Barnyardgrass” value in the assay with barnyardgrass [2] (1000 g ai/ha) is on record as 10. Moreover, the “Pigweed plant response rating” value in the assay on pigweed [3] (1000 g ai/ha) worked out at 60. Further, the “Plant response rating, Wheat” value with wheat (setting [14]) is 0. The “Ragweed plant response rating” value in the assay on ragweed [4] (1000 g ai/ha) is 20. The “Plant response rating, Foxtail, Giant” value in the assay with giant foxtail [5] (setting [14]) was found to be 10. The “Plant response rating, Galium” value with galium (setting [14]) came out at 10. For the same compound, the “Plant response rating, Pigweed” value in the assay on pigweed [6] (setting [14]) stood at 30. Also, the “Ryegrass, Italian plant response rating” value with Italian ryegrass [7] (1000 g ai/ha) was 20. Besides, the “Kochia plant response rating” value in the assay with kochia [8] (1000 g ai/ha) was found to be 70. Moreover, in the assay with barnyardgrass [9] (1000 g ai/ha), the “Barnyardgrass plant response rating” value is listed as 10. Moreover, the “Plant response rating, Ryegrass, Italian” value in the assay on Italian ryegrass [10] (setting [14]) stood at 0. In addition, the “Plant response rating, Ragweed” value in the assay on ragweed [11] (setting [14]) was 10. Moreover, the “Plant response rating, Blackgrass” value in the assay with blackgrass (1000 g ai/ha) amounted to 10. For the same compound, the “Plant response rating, Kochia” value with kochia [12] (setting [14]) was found to be 50.
